Experimental data: patent US6984619B1, “Method for protection against tumor metastasis formation” (Arch Development Corporation, priority 1999, dated 2006)
Entries after “also recorded” stand apart in the source; their conditions may differ. Read-outs that look alike come from different tables or passages of the source. Each block holds one molecule with its values, some of them ahead of it.

Legend:
[1] = Blood level of WR-2721 in mice; assay type: in vivo; conditions: 400 mg/kg dose
Procedure: It is also understood that uptake after is species and organ/tissue dependent. The applicable conversion factors and physiological assumptions to be made concerning uptake and concentration measurement are well-known and would permit those of skill in the art to convert one concentration measurement to another and make reasonable comparisons and conclusions regarding the doses, afficacies and results described herein. By way of example only, in mice given 100 mg/kg WR-2721, 30-minute blood levels are reported at 49 micrograms/ml or 0.23 mM. Accordingly, a 400 mg/kg dose would correspond to a concentration of WR-2721 of about 1.0 mM. Likewise, a human subject given about 740 mg/m^2 of WR-2721 (by IV infusion) would have an initial plasma level at about 100 micromol/liter or 0.1 mM.

[2] = system: MCa-K; experiment: Spontaneous lung metastasis assay, MCa-K adenocarcinoma; assay type: in vivo, C3Hf/Kam mice; conditions: 50 mg/kg WR-2721, MCaK tumor
Procedure: (§1) Animal system and experimental tumors. Experiments have been performed using C3Hf/Kam mice obtained from the University of Texas M.D. Anderson Cancer Center, Houston, Tex. Male mice were at least 110 days of age at the initiation of studies. Studies involving tumors included the use of two syngeneic adenocarcinomas (MCa-K and OCa-I,) and one sarcoma (SA-NH). Tumors were grown in the hind legs or flanks of animals. Single-cell suspensions of 5×10^5 viable tumor cells prepared from excised tumors were injected into the hind leg (spontaneous metastasis assay) or the lateral tail veins (artificial metastasis assay) of mice to develop pulmonary nodules (D. J. Grdina et al., 1974; D. J. Grdina et al., 1977; N. Suzuki et al., 1977; D. J. Grdina et al., 1978). […] Twenty-three days following amputation, the animals were sacrificed, their lungs removed, fixed in Bouin's solution, and lung metastases counted. For the artificial metastases studies, mice were sacrificed 14 days after tumor cell inoculation and lung metastases counted (D. J. Grdina et al., 1974; D. J. Grdina et al., 1977; N. Suzuki et al., 1977; D. J. Grdina et al., 1978).
(§2) Presented in Table 1 is a comparison of the effects of amifostine on the mean number of spontaneous metastases formed in the lungs of mice. […] The level of significance was determined using a t-test for binomial proportions (Walpole and Myers, 1978). […]

[3] = C3H mouse system; cited from earlier work
[4] = system: OCa-I; experiment: Spontaneous lung metastasis assay, OCa-I adenocarcinoma; assay type: in vivo, C3Hf/Kam mice; conditions: 50 mg/kg WR-2721, OCa tumor
Procedure: as §1, §2

[5] = system: hprt locus in splenocytes; conditions: mice; cited from earlier work
[6] = system: SA-NH; experiment: Spontaneous lung metastasis assay, SA-NH sarcoma implanted i.m., leg amputated; assay type: in vivo, C3Hf/Kam mice; conditions: for probability of developing spontaneous metastases (FIG. 1): 200, 100 or 50 mg/kg i.p., greater effects at the lower doses
Procedure: Animal system and experimental tumors. Experiments have been performed using C3Hf/Kam mice obtained from the University of Texas M.D. Anderson Cancer Center, Houston, Tex. Male mice were at least 110 days of age at the initiation of studies. Studies involving tumors included the use of two syngeneic adenocarcinomas (MCa-K and OCa-I,) and one sarcoma (SA-NH). Tumors were grown in the hind legs or flanks of animals. Single-cell suspensions of 5×10^5 viable tumor cells prepared from excised tumors were injected into the hind leg (spontaneous metastasis assay) or the lateral tail veins (artificial metastasis assay) of mice to develop pulmonary nodules (D. J. Grdina et al., 1974; D. J. Grdina et al., 1977; N. Suzuki et al., 1977; D. J. Grdina et al., 1978). For the spontaneous metastases studies, each thiol was administered on the first day following tumor cell inoculation, and then every third day until the tumor reaches 8.0 to 8.5 mm in diameter. At that time the tumor bearing leg is amputated and thiols were administered two and four days later. Twenty-three days following amputation, the animals were sacrificed, their lungs removed, fixed in Bouin's solution, and lung metastases counted. For the artificial metastases studies, mice were sacrificed 14 days after tumor cell inoculation and lung metastases counted (D. J. Grdina et al., 1974; D. J. Grdina et al., 1977; N. Suzuki et al., 1977; D. J. Grdina et al., 1978).
This tumor is p53 wild-type (R. Schimming et al., 1999). A tumor cell suspension containing 5×10^5 viable SA-NH cells was implanted i.m. into the right thighs of three month old male C3Hf/Kam mice. When tumors grew to 8 to 8.5 mm in diameter, each tumor bearing leg was amputated and the animals were then sacrificed 23 days later to assess both the incidence of mice developing metastases and numbers of spontaneous lung metastases formed per mouse. To assess the effects of amifostine on this process, different groups of mice were injected i.p. with 200, 100, or 50 mg/kg of WR-2721 according to the following protocol: drug administration on the first day following inoculation with tumor cells and then every third day until amputation with a final injection 2 days later.
Presented in Table 1 is a comparison of the effects of amifostine on the mean number of spontaneous metastases formed in the lungs of mice. Table 2 presents data regarding the effects of amifostine on affecting the incidence of metastasis formation using these tumor systems. The level of significance was determined using a t-test for binomial proportions (Walpole and Myers, 1978). Treatment of animals with 50 mg/kg of amifostine reduced the incidence of spontaneous metastasis development by these tumors at a level of significance of p<0.025.

[7] = cited from earlier work
[8] = system: angiostatin; experiment: Blood angiostatin by Western blot in mice with or without SA-NH tumor; assay type: in vivo, C3Hf/Kam mice
Procedure: FIG. 2. SA-NH Murine Tumor. Tumor cells (3–5×10^5) were injected into right leg muscle of C3Hf/Kam male mice. Each group consisted of 5 mice. Mice were injected i.p. with 50 mg/kg of Amifostine (Ami) one day after innoculation with viable tumor and every third day (4 times) until amputation (Amp). When tumors grew to 8–9 mm in diameter, the tumor-bearing leg was amputated. Blood was collected using a 1 ml tuberculine syringe rinsed with EDTA (100 mg/ml) or heparin and placed in an EDTA-coated microcentrifuge tube and centrifuged at 250 rpm for 10 min. The resulting supernatants were collected and frozen at −70° C. until assayed for angiostatin by Western blot analysis.
Low non-cytoprotective doses of Amifostine, in the range of 50 to 100 mg/kg, were administered every other day for six days to C3Hf/Kam mice bearing SA-NH sarcomas and twice thereafter following the surgical removal of the tumors. […] Amifostine or its free thiol form designated WR-1065 was further evaluated regarding three processes implicated in the metastatic process. (FIG. 2).

[9] = biological target: T1, MMP-9 (Homo sapiens, UniProt P14780); experiment: Gelatin zymography of medium from treated U251 glioma cells, MMP-9; assay type: cell-based; conditions: 24 h
T1 construct: Medium was isolated at the indicated times, centrifuged at 1000 rpm for 5 min to remove debris; endogenous in cells; host or cells: U251 human glioma cells (serum-free conditioned medium)
T1 sequence (P14780 94-707): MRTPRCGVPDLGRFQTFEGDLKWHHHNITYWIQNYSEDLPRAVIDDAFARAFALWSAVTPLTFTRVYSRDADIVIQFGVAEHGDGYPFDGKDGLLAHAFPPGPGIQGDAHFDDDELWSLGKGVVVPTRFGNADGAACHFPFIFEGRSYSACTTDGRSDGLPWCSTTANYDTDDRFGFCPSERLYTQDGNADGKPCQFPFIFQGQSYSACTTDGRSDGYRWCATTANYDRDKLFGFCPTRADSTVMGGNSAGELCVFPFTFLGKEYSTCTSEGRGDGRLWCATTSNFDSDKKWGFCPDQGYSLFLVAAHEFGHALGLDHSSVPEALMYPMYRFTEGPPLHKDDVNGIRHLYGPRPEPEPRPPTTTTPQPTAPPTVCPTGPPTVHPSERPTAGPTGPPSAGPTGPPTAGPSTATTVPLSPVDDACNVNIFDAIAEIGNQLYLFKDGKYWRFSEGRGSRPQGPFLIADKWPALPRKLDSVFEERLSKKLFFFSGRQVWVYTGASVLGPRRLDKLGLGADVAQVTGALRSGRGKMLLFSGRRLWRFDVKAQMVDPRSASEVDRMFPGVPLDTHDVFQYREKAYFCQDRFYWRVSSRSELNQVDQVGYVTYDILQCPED
Procedure: (§3) U251 Glioma Cells were grown to confluence in 6-well plates. Medium was removed, the cells washed twice with 37° C. PBS, and serum-free medium added. The cells were treated as follows: • Control—24 h, 48 h 72 h • 40 μM SH—24 h, 48 h 72 h (continuous exposure) • 10 ng/ml TNFα—24 h, 48 h, 72 h (continuous exposure). Medium was isolated at the indicated times, centrifuged at 1000 rpm for 5 min to remove debris, and stored at −80° C. until use. Protein was quantitated using the Bradford method. 252 ng of protein was loaded on 10% zymogram (gelatin) gels (Novex, San Diego, Calif.) and electrophoresed at 125 volts for 90 min in Tris-Glycine SDS buffer. After running, the gels were incubated in zymogram renaturing buffer (100 ml) for 30 min at room temperature with gentle agitation. The buffer was removed and fresh zymogram developing buffer (100 ml) added and the gels incubated at 37° C. overnight with gentle agitation. The following day the gels were stained with 0.5% coomassie blue R-250 for 30 min, and destained. Areas of protease activity show up as clear bands. This assay will detect MMP-2 and MMP-9.
(§4) Same protocol as above. Treatment conditions were as follows: • Control—24 h • 4 mM SH—24 h (continuous exposure) • 10 mM L-NAC—24 h (continuous exposure) • 10 mM L-NAC—24 h (continuous exposure) • 10 mM Captopril—24 h (continuous exposure) • 50 mM EDTA—24 h (chelator) • 4 mM SH+50 mM EDTA—24 h • 10 mM L-NAC+50 mM EDTA—24 h • 10 mM D-NAC+50 mM EDTA—24 h • 10 mM Captopril+50 mM EDTA—24 h • 40 μM SH—24 h • 10 ng/ml TNFα—24 h

[10] = biological target: T2, MMP-2 (Homo sapiens, UniProt P08253); experiment: Gelatin zymography of medium from treated U251 glioma cells, MMP-2; assay type: cell-based; conditions: 24 h
T2 construct: Medium was isolated at the indicated times, centrifuged at 1000 rpm for 5 min to remove debris; endogenous in cells; host or cells: U251 human glioma cells (serum-free conditioned medium)
T2 sequence (P08253 110-660): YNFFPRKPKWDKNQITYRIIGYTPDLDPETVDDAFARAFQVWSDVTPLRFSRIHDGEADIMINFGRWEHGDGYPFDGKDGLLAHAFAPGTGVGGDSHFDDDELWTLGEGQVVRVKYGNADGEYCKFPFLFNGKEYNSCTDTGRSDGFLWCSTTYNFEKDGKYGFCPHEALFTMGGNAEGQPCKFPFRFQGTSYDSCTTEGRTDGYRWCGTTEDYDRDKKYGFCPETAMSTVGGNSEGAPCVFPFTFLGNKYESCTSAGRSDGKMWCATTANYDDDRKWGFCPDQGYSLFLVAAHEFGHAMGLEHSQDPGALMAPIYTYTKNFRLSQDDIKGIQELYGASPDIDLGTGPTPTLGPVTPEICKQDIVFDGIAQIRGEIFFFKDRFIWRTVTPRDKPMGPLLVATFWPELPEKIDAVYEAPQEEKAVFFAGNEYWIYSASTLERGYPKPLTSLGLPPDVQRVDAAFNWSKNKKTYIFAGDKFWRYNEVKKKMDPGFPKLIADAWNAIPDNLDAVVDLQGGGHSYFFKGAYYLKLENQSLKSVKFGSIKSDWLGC
Procedure: as §3, §4

concentration of WR-2721 corresponding to dose [1]: about 1.0 mM
Structure (SMILES): NCCCNCCSP(=O)(O)O [WR-2721, S-2-(3-aminopropylamino)ethyl phosphorothioic acid]
number of spontaneous metastases (mean ± s.e.) [2]: 1.7 ± 1.3
cytoprotection at doses below 100 mg/kg [3]: completely ineffective
dose required for maximum cytoprotection [3]: 400 mg/kg
number of spontaneous metastases (mean ± s.e.) [4]: 0.5 ± 0.14
doses at which the antimutagenic effect diminishes [5]: less than 10 mg/kg
number of spontaneous metastases (mean ± s.e.) ([6]; 50 mg/kg WR-2721 i.p., lung metastases per mouse, Sa-NH tumor): 2.9 ± 1.1
reduction in the development of spontaneous metastases in the lungs ([6]; 50 to 100 mg/kg every other day for six days and twice after surgical removal of tumor): four-fold
probability of developing spontaneous metastases (FIG. 1) ([6]; listed as Amifostine): actually reduced it
probability of developing spontaneous metastases (FIG. 1) ([6]; listed as amifostine): reduces the chances of developing spontaneous metastases
net charge ([7]; disulfide form): +4
net charge ([7]; thiol form): +2
enhancement of angiostatin levels found in control mice ([8]; Amifostine injections, 50 mg/kg i.p. (FIG. 2)): four-fold
angiostatin level after removal of tumors ([8]; continued Amifostine treatment following tumor removal): equal to presurgery levels
induction of angiostatin production ([8]; tumor-free and tumor-bearing mice (FIG. 2)): effective in inducing angiostatin production

reduction of MMP-9 activity/secretion ([9]; 10 mM): 73%
reduction of MMP-2 activity/secretion ([10]; 10 mM): 69%
Structure (SMILES): CC(=O)N[C@@H](CS)C(=O)O [L-NAC, N-acetyl-L-cysteine]

Structure (SMILES): O=C(O)CN(CCN(CC(=O)O)CC(=O)O)CC(=O)O [EDTA]
inhibition of MMP-9 activity/secretion ([9]; 50 mM EDTA): completely inhibiting; also recorded: completely inhibited; also recorded: completely blocked
inhibition of MMP-2 activity/secretion ([10]; 50 mM EDTA): completely inhibiting; also recorded: completely inhibited; also recorded: completely blocked
